Test results from US8815900B2, “Compounds and compositions for reducing lipid levels” (CVI Pharmaceuticals Limited, priority 2007, dated 2014).
Where a name gives a salt, the structure may show the parent alone.

Key:
[1] = test system: LDLR mRNA expression in HepG2 cells; assay: LDLR mRNA expression in HepG2 cells, semi-quantitative RT-PCR; assay type: cell-based, Human; conditions: 8 hours, indicated doses, corrected by GAPDH mRNA (FIG. 3)
Procedure: HepG2 cells obtained from American Tissue Culture Collection (Manassas, Va., USA) were seeded in 6-well culture plates at a density of 0.8×10^6 cells/well cultured in EMEM containing 0.5% FBS and were treated with each purified compound at indicated doses for 8 hours. Total RNA was isolated, and 2 μg per sample was reverse transcribed with random primers using M-MLV (Promega) at 37° C. for 1 hour. PCR was carried out at 94° C. for 30 sec, 60° C. for 30 sec, and 72° C. for 30 sec with initial activation of the enzyme at 94° C. for 1 minute. Thirty cycles were performed for LDLR and GAPDH. PCR was performed using primers HLDLR-up and HLDLR-lo for LDLR and primers HGAPDH-up and HGAPDH-lo for GAPDH. The PCR products were separated on a 1% agarose gel and the band intensity was quantitated. LDLR mRNA levels were corrected by measuring GAPDH mRNA levels.
After the treatment, a portion of cells was harvested for total RNA, and another portion of cells was used for TG measurement. The LDLR mRNA levels were assessed by semi quantitative RT-PCR, and the cellular TG content was determined as described above.

[2] = test system: LDLR ligand uptake activity in HepG2 cells; assay: DiI-LDL uptake (LDLR ligand uptake activity) in HepG2 cells; assay type: cell-based, Human; conditions: 20 hours; also: key: +: slightly increased fluorescent intensity over control; ++: modestly increased fluorescent intensity over control; +++: strongly increased fluorescent intensity over control
Procedure: HepG2 cells (2×10^5 cells/well) in 24-well culture plates were treated with various compounds at indicated concentrations for 20 hours. The fluorescent 1,1′-dioctadecyl-3,3,3′,3′-tetramethylindocarbocyanin perchlorate (DiI-LDL) (Biomedical Technologies, Stoughton, Mass.) at a concentration of 2 μg/mL was added to cells at the end of treatment. After 4 hours, the medium was removed, cells were washed with cold PBS, and were examined immediately under a fluorescent microscope (Nikon) at 200× amplification. The fluorescent intensity in compound-treated cells was compared to that in untreated control cells. […] In these experiments berberine chloride was used for comparison.

[3] = test system: hypercholesterolemic hamsters; assay: In vivo lipid lowering of (14R)-THP in hamsters on high cholesterol diet; parameters: species or system Golden Syrian male hamsters; conditions: 12 mg/kg daily i.p., 34 days
Text: To determine whether the induction of hepatic LDLR expression by corydalis-derived compounds would result in total cholesterol (TC) and LDL-cholesterol (LDL-c) reductions in plasma, hypercholesterolemic hamsters were used as an animal model. In one experiment, 10 Golden Syrian male hamsters under a high cholesterol (HC) diet were divided into 2 groups.

[4] = test system: LDLR mRNA expression in HepG2 cells; assay: LDLR mRNA expression in HepG2 cells, quantitative real-time RT-PCR; assay type: cell-based, Human; conditions: 24 hours; for Activity on LDLR mRNA expression (Fold of control): dose less than or equal to 10 μM
Procedure: In yet another experiment, HepG2 cells were treated with various compounds for 24 hours at the indicated doses. Total RNA was isolated and 2 μg was used to generate cDNA in a reaction containing random primers and M-MLV at 37° C. for 1 hour in a volume of […] Real-time PCR was performed on the cDNA using MCEP REALPLEX 2 SYSTEM (Eppendorf) and Universal MasterMix (Applied Biosystems). Human LDLR and GAPDH Pre-Developed TaqMan Assay Reagents (Applied Biosystems) were used to assess the levels of mRNA expressions in HepG2. The levels of LDLR mRNA were normalized to that of GAPDH. Each RNA samples was assayed in triplicate. The abundance of LDLR mRNA in untreated cells was defined as 1, and the amounts of LDLR mRNA from compound-treated cells were plotted relative to that value in FIG. 13. The data shown are mean±s.d.
Activities of some compounds of Formulas I, II, III, and IV on LDLR mRNA expression were determined. HepG2 cells were treated with new compounds individually at a dose less than or equal to 10 μM for 24 hours. Total RNA was harvested for quantitative real-time RT-PCR analysis using the method described in Example 16B. […] In these experiments, berberine chloride was included for comparison.
Quantitative real-time RT-PCR was conducted, and triplicate was assayed in each RNA sample. The data are mean value of triplicates.
Total RNA was harvested for quantitative real-time RT-PCR analysis using method described in Examples 16B.

[5] = test system: Wister male rats under a high fat and high cholesterol diet; assay: Lipid lowering and body weight effects of (14R,13S)-CRDL hydrochloride salt in Wister rats; assay type: in vivo
Procedure: Male Wister rats were used as another animal model to examine the in vivo effects of (14R,13S)-CRDL in plasma lipid levels.
In one experiment, 18 Wister male rats under a high fat and high cholesterol diet were divided into 2 groups. One group was given (14R,13S)-CRDL hydrochloride salt orally at a daily dose of 75 mg/kg by an orogastric tube for 4 weeks, and the control group received daily treatment of equal amount of vehicle (0.1 M sodium phosphate, pH 3.5). Serum lipid levels were measured weekly.
At the end of treatment, Rats were sacrificed and blood and sera were collected to measure several critical parameters for liver function and kidney function. […] Kidney function and blood glucose level were not changed by the treatment (FIG. 11E).
The food intake and body weight gains were measured every week during the 4-week treatment period. […] In the first week, the amount of food consumed was decreased in CRDL-treated group. […] The ability of CRDL to activate AMPK signaling pathway to increase energy expenditure and to reduce fat accumulation likely contributes to this weight reducing effect.

[6] = Stability of compound 69 under cell culture conditions (LC-MS of medium); assay type: in vitro ADME; conditions: HepG2 culture medium, 20 μM
Procedure: HepG2 cells were cultured in 6-well cell culture plate in EMEM containing 0.5% FBS overnight. Compound 69+ was added to the culture medium to a final concentration of 20 μM. Medium was collected at 0 (control), 4, 8, or 24 hours after the compound addition.
The collected media were analyzed by LC-MS on a Thermo Fisher Scientific Surveyor HPLC system and LCQ ion trap MS with electrospray ionization source. A 50×2.1 mm Hypersil Gold C18 3 um column was used with a flow rate of 200 uL/min. The method conditions were 98% A (0.1% formic acid in water)/2% B (0.1% formic acid in acetonitrile) then a gradient to 95% B in 10 minutes. The injection volume was 10 uL.

[7] = HC diet, compared to untreated control group
[8] = (14R,13S)-CRDL hydrochloride salt orally 75 mg/kg daily, 4 weeks
[9] = end of 4-week treatment, 75 mg/kg daily orally

COc1cc2c(cc1O)CCN1Cc3c(ccc(OC)c3OC)CC21 (stereo not drawn) [14R-(+)-CRPM, 14R-(+)-corypalmine]
LDLR mRNA expression [1]: potent and dose-dependent effects
Activity on DiI-LDL uptake ([2]; A, compound dose ≦ 10 μM): ++

COc1cc2c(cc1OC)[C@H]1Cc3ccc(OC)c(OC)c3CN1CC2 [14R-(+)-THP, 14R-(+)-tetrahydropalmatine]
adverse effects during the treatment period [3]: No adverse effects were observed
reduction of plasma TC [3, 7]: 31.6%
reduction of plasma TG [3, 7]: 35.93%
reduction of plasma non-HDL-c [3, 7]: 35.95%
gains of body weight during the treatment period ([3]; vs control group): very similar
LDLR mRNA expression [1]: potent and dose-dependent effects
LDLR mRNA expression, combined with statins ([4]; added to low dose simvastatin or fluvastatin (FIG. 17)): further improved the stimulatory effects of statins
Activity on DiI-LDL uptake ([2]; B, compound dose ≦ 40 μM): ++

COc1cc2c(cc1OC)[C@H]1[C@@H](C)c3ccc(OC)c(OC)c3CN1CC2 [Compound 6, (13S,13aR)-2,3,9,10-tetramethoxy-13-methyl-5,6,7,8,13,13a-hexahydroiso-quinolino[2,1-b]isoquinoline hydrochloride]
LDL-c level, % of control [5, 8]: 25.6%
LDL-c level, % of day 0 [5, 8]: 22.4%
TC, % compared to the control group [5, 8]: 33.8%
TC, % of the pretreatment level [5, 8]: 33.0%
TG level, % of the control [5, 8]: 29%
TG level, % of the pretreatment level (day 0) [5, 8]: 27%
blood glucose level [5, 9]: not changed
kidney function (BUN, CREA) [5, 9]: not changed

COc1ccc2c(c1O)CN1CCc3cc4c(cc3C1C2)OCO4 (stereo not shown) [Compound 34, 10-methoxy-5,6,7,8,13,13a-hexahydro-2H-1,3-dioxolano[4,5-g]isoquinolino[3,2-a]isoquinolin-9-ol]
Activity on LDLR mRNA expression (Fold of control) [4]: 1.76 ± 0.17 Fold of control
Activity on DiI-LDL uptake ([2]; A, compound dose ≦ 10 μM): ++

COc1ccc2c(c1OC(=O)NC(C)C)CN1CCc3cc4c(cc3C1C2)OCO4 (stereo not shown) [Compound 41, (10-methoxy (5,6,7,8,13,13a-hexahydro-2H-1,3-dioxolano[4,5-g]isoquinolino[3,2-a]isoquinolin-9-yloxy))-N-(methylethyl) carboxamide]
Activity on LDLR mRNA expression (Fold of control) [4]: 1.60 ± 0.03 Fold of control
Activity on DiI-LDL uptake ([2]; A, compound dose ≦ 10 μM): ++

COc1ccc2c(c1OC(=O)N(C)C)CN1CCc3cc4c(cc3C1C2)OCO4 (stereo not shown) [Compound 43, (10-methoxy (5,6,7,8,13,13a-hexahydro-2H-1,3-dioxolano[4,5-g]isoquinolino[3,2-a]isoquinolin-9-yloxy))-N,N-dimethylcarboxamide]
Activity on LDLR mRNA expression (Fold of control) [4]: 1.95 ± 0.18 Fold of control
Activity on DiI-LDL uptake ([2]; A, compound dose ≦ 10 μM): ++

COc1ccc2c(c1OC(=O)Nc1ccc(OC(F)(F)F)cc1)CN1CCc3cc4c(cc3C1C2)OCO4 (stereo not shown) [Compound 44, (10-methoxy (5,6,7,8,13,13a-hexahydro-2H-1,3-dioxolano[4,5-g]isoquinolino[3,2-a]isoquinolin-9-yloxy))-N-[4-(trifluoromethoxy)phenyl]car-boxamide]
Activity on LDLR mRNA expression (Fold of control) [4]: 2.20 ± 0.06 Fold of control
Activity on DiI-LDL uptake ([2]; A, compound dose ≦ 10 μM): ++

COc1cc(NC(=O)Oc2c(OC)ccc3c2CN2CCc4cc5c(cc4C2C3)OCO5)cc(OC)c1 (stereo not shown) [Compound 45, N-(3,5-dimethoxyphenyl) (10-methoxy (5,6,7,8,13,13a-hexahydro-2H-1,3-dioxolano[4,5-g]isoquinolino[3,2-a]isoquinolin-9-yloxy)) carboxamide]
Activity on LDLR mRNA expression (Fold of control) [4]: 2.09 ± 0.11 Fold of control
Activity on DiI-LDL uptake ([2]; A, compound dose ≦ 10 μM): ++

COc1ccc2c(c1OC(=O)Nc1cccc(C)c1)CN1CCc3cc4c(cc3C1C2)OCO4 (stereo not shown) [Compound 46, (10-methoxy (5,6,7,8,13,13a-hexahydro-2H-1,3-dioxolano[4,5-g]isoquinolino[3,2-a]isoquinolin-9-yloxy))-N-(3-methylphenyl) carboxamide]
Activity on LDLR mRNA expression (Fold of control) [4]: 1.80 ± 0.16 Fold of control
Activity on DiI-LDL uptake ([2]; A, compound dose ≦ 10 μM): ++

CCOC(=O)Oc1c(OC)ccc2c1CN1CCc3cc4c(cc3C1C2)OCO4 (stereo not shown) [Compound 48, 10-methoxy-5,6,7,8,13,13a-hexahydro-2H-1,3-dioxolano[4,5-g]isoquinolino[3,2-a]isoquinolin-9-yl ethoxyformate]
Activity on LDLR mRNA expression (Fold of control) [4]: 1.45 ± 0.15 Fold of control

COc1ccc2c(c1OC(=O)Nc1ccccc1)CN1CCc3cc4c(cc3C1C2)OCO4 (stereo not shown) [Compound 61, (10-methoxy (5,6,7,8,13,13a-hexahydro-2H-1,3-dioxolano[4,5-g]isoquinolino[3,2-a]isoquinolin-9-yloxy))-N-benzamide]
Activity on LDLR mRNA expression (Fold of control) [4]: 1.33 ± 0.53 Fold of control

COc1ccc2c(c1OS(=O)(=O)c1ccccc1)CN1CCc3cc4c(cc3C1C2)OCO4 (stereo not shown) [Compound 69, 9-benzene-sulfonyloxy-10-methoxy-5,8,13,13a-tetrahydro-6H-[1,3]dioxolo[4,5-g]isoquino[3,2-a] isoquinoline]
stability under cell culture conditions ([6]; up to 24 hours): fairly stable
Peak Area m/z 466.1 ([6]; 0 hours (control)): 2.38e8
Peak Area m/z 466.1 ([6]; 4 hours): 9.67e7
Peak Area m/z 466.1 ([6]; 8 hours): 9.22e7
Peak Area m/z 466.1 ([6]; 24 hours): 7.03e7

CN1CCc2cc3c(cc2[C@H]1[C@@H]1O[C@H](O)c2c1ccc1c2OCO1)OCO3 [d-(+)-EGN, (+)-egenine]
Activity on DiI-LDL uptake ([2]; A, compound dose ≦ 10 μM): +

(+)-corlumidin [(+)-CLMD]
LDLR mRNA expression [1]: potent and dose-dependent effects
Activity on DiI-LDL uptake ([2]; B, compound dose ≦ 40 μM): +
